Tests used:
[1] = tested on: glioma stem cells (U87MG SLC, U251 SLC, GSC2, GSC5); experiment: Detection of cell viability by MTS assay; type: cell-based, human
Excerpt: “MTS assay”: a colorimetric method for determining the number of viable cells in proliferation assays and cytotoxicity assays. MTS is a novel tetrazolium compound. PMS is an electron coupling reagent with enhanced chemical stability, which forms a stable solution when mixed with MTS. MTS can be reduced by cellular organisms to generate a colored formazan product that is soluble in culture media. This conversion is thought to be carried out by NAD(P)H-dependent dehydrogenase enzymes in metabolically active cells. The amount of the formazan product, which is quantified at 490 nm, is proportional to the number of viable cells in culture.
“The relative cell viability”: after the detection of the value of absorbance by above MTS assay, the relative cell viability is calculated based on the value of absorbance (A). […]
(2) In order to detect the effect of clofoctol on cell viability of glioma stem cells, the experiment was carried out using a 96-well cell culture plate which is coated with 100 μg/mL poly-lysine overnight, wherein the plate was washed twice next day with saline, and allowed to dry until use. The cells were digested, resuspended as a single cell suspension, counted and seeded on a 96-well cell culture plate (U87MG SLC (5000 cells/well), U251 SLC (10000 cells/well), GSC2 (10000 cells/well), GSC5 (10000 cells/well)), allowed to grow overnight. […]

[2] = tested on: glioma stem cells (GSC2-GFP, U87MG SLC-GFP) co-cultured with normal human astrocytes (HA); experiment: Flow cytometry of co-culture model (GSC2-GFP or U87MG SLC-GFP + HA-RFP); type: cell-based; details: 24 hours, 1-30 μM; compared with normal human astrocytes
Experimental: 6-well and 96-well cell culture plates were pre-coated with 100 μg/mL poly-lysine at 37° C. overnight, followed by washing twice with saline and allowing to air-dry. GSC2-GFP cells stably expressing green fluorescence and HA cells stably expressing red fluorescence were digested into single cell, and resuspended in fresh culture medium, counted and diluted to 5×10^4 cells/mL. Then, the two types of cells were mixed well at a ratio of 1:1, divided into five tubes. Clofoctol were added in each tube and mixed well, so that the concentrations of clofoctol were 0 μM, 1 μM, 3 μM, 10 μM, 30 μM, respectively. The resulting mixtures were added to a 6-well cell culture plate (2 mL) and a 96-well cell culture plate (100 μL, 3 replicate wells per group) respectively for 24 hours, before the MTS assay was used to detect the cell activity of each treatment group in the 96-well cell culture plate. The cells in the 6-well cell culture plates were collected separately, washed twice with PBS, and resuspended with 100 μL respectively. The proportion of GSC2-GFP and HA-RFP in the viable cells of each treatment group was analyzed by flow cytometry. Considering the changes in cell activity after medicament treatment of the co-culture model, the relative cell viability of each cell component in the co-culture model was statistically analyzed. […]

[3] = tested on: GSC2 tumorspheres; experiment: Experiment of tumorsphere formation; type: cell-based, human
Experimental: After coating the 96-well cell culture dish, 100 μL single cell suspension containing 5000 GSC2 was added to each well. After 4 days of natural growth, the original medium was removed, and 100 μL fresh culture containing various concentrations of clofoctol was added to each well. The medicament concentrations were 0.03 μM, 0.1 μM, 0.3 μM, 1 μM, 3 μM, 10 μM and 30 μM, respectively. After 48 hours of medicament treatment, the morphological changes of the tumorspheres in each treatment group were observed under the microscope, and the number of tumorspheres in each treatment group was also counted.

[4] = tested on: GSC5; experiment: Limited dilution experiment (self-renewal); type: cell-based, human; details: GSC5, 1 μM, 3 μM and 10 μM, 2 weeks
Experimental: (1) The cells of GSC5 tumorspheres in suspension culture were collected into a 15 mL centrifuge tube, 0.5 mL of ACCUTASE enzyme (purchased from sigma) was added, and the cells were digested at 37° C. for 5 minutes. Then the cells were pipetted to single cell and the supernatant was removed after centrifugation;
(2) Fresh Neurobasal culture medium (purchased from gibco) was added. A portion of the cells were taken for trypan blue staining, followed by cell counting.
(3) After calculating the desired volume of cell culture medium, the cell concentration gradient of 200, 100, 50, 25 cells/well was set, and 10 replicate wells for each concentration were set. The DMSO control group and medicament treatment group with 0 μM, 1 μM, 3 μM and 10 μM of clofoctol were set.
(4) The cells were seeded in a 96-well plate at 100 and cultured in an incubator at 37° C., 5% CO2, 2 weeks later the proportion of the well without tumorsphere was counted;

[5] = tested on: glioma stem cells (GSC5; FIG. 6 legend: GSC2); experiment: Recovery assay (MTS after removal of medicament); type: cell-based, human; details: 24 or 48 hours treatment, then 48 hours in fresh medium
Experimental: (1) The 96-well cell culture plate was coated with 100 μg/mL poly-lysine.
(2) GSC5 was digested into single cell using ACCUTASE enzyme, resuspended in fresh Neurobasal culture medium, and the cells were then plated on the pre-coated 96-well cell culture plates overnight;
(3) clofoctol was added, the concentration of which were 0.03 μM, 0.1 μM, 0.3 μM, 1 μM, 3 μM, 10 μM and 30 μM, 9 replicate wells for each concentration;
(4) after 24 hours of treatment, 20 μL MTS/PMS mixed reagent was added to 3 replicate wells of each concentration to measure the cell activity. The medicament-containing medium in the other 6 replicate wells was removed, fresh medium was added to 3 of the 6 replicate wells, and medium containing the same concentration of clofoctol was added to the rest 3 replicate wells;
(5) after 48 hours of incubation, cell activity was detected by MTS assay.
After 48 hours of medicament treatment, the cells were restored for 48 hours and then detected, the steps are as above.

[6] = tested on: GSC2; experiment: In situ tumorigenesis in nude mice of pretreated GSC2; type: in vivo, Balb/C nude mice
Experimental: The cells were collected after 24 hours of pre-treatment with clofoctol at a concentration of 30 μM, washed twice with PBS, and a portion of the cells were subjected to trypan blue staining and cell counting. The cells were injected in situ into the intracranial striatum of Balb/C nude mice aged 5-7 weeks, at 10^5 cells/mouse, 5 mice each group, and a DMSO control group was set.

[7] = tested on: U87MG SLC-GFP xenograft; experiment: Administration to zebrafish glioma xenograft model; type: in vivo; details: 10 μM in hatching solution, 48 hours
Experimental: 3000 green-fluorescent-labeled U87MG SLC-GFP were injected into the yolk sac of the 48-hour zebrafish embryo. After 48 hours of natural growth, fluorescence microscopy was used to detect the tumorigenesis in zebrafish. And then clofoctol at a concentration of 10 μM was added to the zebrafish hatching solution. After 48 hours of medicament treatment, the green fluorescence intensity of zebrafish yolk sac was detected by fluorescence microscopy to determine the in vivo inhibitory effect of clofoctol on tumors in zebrafish xenograft models.

[8] = tested on: GSC2 subcutaneous tumors; experiment: Subcutaneous GSC2 xenograft at armpits of nude mice; type: in vivo, Balb/C nude mice; details: 20 mg/kg, intraperitoneal injection, 11 days
Experimental: Subcutaneous tumorigenesis at armpits of nude mice: after centrifugation and digestion, GSC2 single cell re-suspended in PBS was subcutaneously inoculated into the armpits of 15 Balb/C nude mice of 5 weeks old. The inoculation number of the cells was 10^5 cells/mouse. The tumor size of nude mice was recorded (tumor size in nude mice=length*width^2/2). When the subcutaneous tumors in nude mice reached about 100 mm^3, they were divided into DMSO group and clofoctol administration group. The dose administered was 20 mg/kg, the mice were administered by intraperitoneal injection for a period of 11 days. The changes in tumor size and the body weight in two groups of nude mice were recorded.

[9] = tested on: GSC2; experiment: Annexin V/PI counterstaining for the detection of apoptosis; type: cell-based, human; details: GSC2, 1-30 μM, 12 hours or 24 hours
Experimental: (1) GSC2 were treated with clofoctol at the concentrations of 1 μM, 3 μM, 10 μM, 30 μM for 12 hours or 24 hours;
(2) the cells were collected and washed twice with PBS;
(3) the cells were resuspended with 50 μL 1*binding buffer with the cell density of about 1*10^6 cells/mL;
(4) 2.5 μL FITC Annexin V and 2.5 μL PI were added;
(5) incubating for 15 min at room temperature in the darkness;
(6) 200 μL of 1*binding buffer was added to the system, and the cells in each treatment tube was passed through the cell strainer;
(7) flow cytometry analysis;
The Annexin V/PI counterstaining kit used was purchased from BD pharmingen with the product lot number 556547.

Q: Which “cell activity of glioma stem cells (MTS, FIG. 1)” value ([1]; 48 hours, 0.3-30 μM, compared with glioma cells and normal human cell lines) does the source give for CC(C)(C)CC(C)(C)c1ccc(O)c(Cc2ccc(Cl)cc2Cl)c1 [clofoctol, 2-[(2,4-dichlorophenyl)methyl]-4-(2,4,4-trimethylpentan-2-yl)phenol] here?
A: Its value is “specifically inhibits the cell activity of glioma stem cells”.

Q: What about the IC50 ([1]; Homo sapiens, four glioma stem cell strains (U87MG SLC, U251 SLC, GSC2, GSC5), after 48 hours treatment) of the same compound?
A: The IC50 was 7.65 to 10.5 µM.

Q: And the “relative cell viability of each cell component in the co-culture model” value [2]?
A: Its value is “specifically inhibits the cell activity of glioma stem cells in the co-culture model”.

Q: And the “morphology of tumorspheres at low concentrations” value ([3]; GSC2, 0.03 μM, 0.1 μM, 48 hours)?
A: Its value is “grow protuberances and exhibit clear differentiation-like characteristics”.

Q: What about the “morphology of tumorspheres at high concentrations” value ([3]; GSC2, 10 μM, 30 μM, 48 hours) of the same compound?
A: Its value is “caused the death of marginal cells of tumorspheres”.

Q: And the “size and number of tumorspheres” value ([3]; GSC2, 48 hours, 0.03-30 μM)?
A: Its value is “significantly reduce the size and number of tumorspheres”.

Q: And the “formation of glioma stem cell clones (self-renewal ability)” value [4]?
A: The value was “significantly inhibits the formation of glioma stem cell clones”.

Q: What about the “reversibility of the effect on glioma stem cells after removal of medicament” value [5] of the same compound?
A: The value was “irreversible to some extent”.

Q: And the “in situ tumorigenesis (mice with tumor / mice injected)” value ([6]; GSC2 pretreated 24 hours at 30 μM, 1 * 10^5 cells/mouse, intracranial striatum)?
A: Its value is 0/5.

Q: What about the “ability of in situ tumorigenesis in nude mice” value ([6]; pretreatment of GSC2 at 30 μM for 24 hours) of the same compound?
A: The value was “significantly inhibits its ability of in situ tumorigenesis in nude mice”.

Q: And the “in vivo tumor growth (green fluorescence intensity of yolk sac)” value [7]?
A: The value was “significantly inhibits the in vivo tumor growth”.

Q: And the “side effects (body weight)” value [8]?
A: The value was “side effects were small”.

Q: And the “tumor growth (tumor size)” value [8]?
A: The value was “significantly inhibits tumor growth”.

Q: What about the “apoptosis in glioma stem cells” value [9] of the same compound?
A: The value was “can induce apoptosis in glioma stem cells”.
